Data published in US5240961A, “Method of treating reduced insulin-like growth factor and bone loss associated with aging” (priority 1992, dated 1993).
Values joined by “and” are separate entries in the source; they are usually repeats but may differ in a detail not shown here. Identical values can stand only once. “Also recorded” adds a separate entry of the source. Like-named read-outs stand apart in the source and are kept apart here.

Assays:
[1] = compared to other vitamin D analogues; cited from earlier work
serum osteocalcin = test: Comparative effects of L-carnitine, acetyl carnitine and γ-butyrobetaine on serum osteocalcin in adult mice; type: in vivo, mouse (BALB/c male); settings: for Osteocalcin: actual intake estimated about half
Experimental: (§1) The present invention is further explained by the following examples which should not be construed by way of limiting the scope of the present invention. In the following examples, serum carnitine levels were determined by the method of R. Parvin et al., Anal. Biochem., vol. 79 (1979) pp. 190-201. Serum IGF-1 concentrations were measured by immunoradiometric assay, for example, by IRMA Kit available from Diagnostic Systems Laboratories, Inc., Webster, Texas. Serum osteocalcin levels were measured according to the method of Grunaberg et al., Meth. Enzymology, vol 107 (1984) 516, and which is embodied in an osteocalcin kit available from Biomedical Technologies, Inc., Stoughton, Mass. All mice used in the animal studies were BALB/c strain which is commercially available.
(§2) Tests were performed to compare the effects on serum osteocalcin of diet supplementation with L-carnitine, its precursor, γ-butyrobetaine (available from Aldrich Chemical Co.) and one of its metabolites, acetylcarnitine (available from Life Science Resources, Milwaukee, Wis. 53223). Twenty adult mice, i.e., three months of age, (BALB/c male mice) were divided into seven groups. Each of the groups was fed diets as indicated hereinbelow for twelve weeks. One group (n=3) was fed a diet with L-carnitine supplementation at a dose of 50 mg/kg of body weight each day, while the second group (n=3) was fed L-carnitine at a daily dose of about 100 mg/kg. The third group (n=2) was fed a diet with acetylcarnitine supplementation at a daily dose of 50 mg/kg, while the fourth group (n=3) was fed a daily dose of 100 mg/kg of this compound. The fifth group (n=2) was fed a daily dose of 50 mg/kg of γ-butyrobetaine supplementation,while the sixth group was fed a daily dose of 100 mg/kg of γ-butyrobetaine. The seventh group (n=4) was fed normal, unsupplemented feed (control). Mouse blood was sampled prior to beginning of the trial (pretreatment), at six weeks, and at the end of the trial (twelve weeks). The samples were evaluated for serum osteocalcin levels at six and twelve weeks. Total carnitine was determined at twelve weeks.

[2] = Serum carnitine at 12 weeks in adult mice fed L-carnitine, acetyl carnitine or γ-butyrobetaine; parameters: species or system mouse (BALB/c male); settings: mouse, in vivo, po
Experimental: as §1, §2

[3] = human beings; cited from earlier work
[4] = system: children with carnitine deficiency; settings: carnitine repletion; cited from earlier work
[5] = prolonged treatment, moderate or high doses; cited from earlier work
[6] = prolonged treatment, moderate or high doses; cited from earlier work; remark: listed apart in the source
body composition = settings: replacement doses; cited from earlier work

For C=C1/C(=C\C=C2/CCC[C@]3(C)[C@@H]([C@H](C)/C=C/[C@H](C)C(C)C)CC[C@@H]23)C[C@@H](O)C[C@@H]1O [1α-hydroxy vitamin D2], the “toxicity” value [1] is listed as “low toxicity”.

In the case of CC(=O)O[C@H](CC(=O)[O-])C[N+](C)(C)C [acetyl L-carnitine, acetylcarnitine, reference compound], the “significance of difference in osteocalcin vs control (p, student's t test)” value (serum osteocalcin; 50 mg/kg/day) is reported as less than 0.01, the Osteocalcin (serum osteocalcin; 50 mg/kg/day, 6 wks) is reported as 70 ng/mL and 70 ± 4 ng/mL and the Osteocalcin (serum osteocalcin; 50 mg/kg/day, 12 wks) is reported as 62 ng/mL. The Osteocalcin (serum osteocalcin; 100 mg/kg/day, 6 wks) was 60 ng/mL and 61 ± 6 ng/mL, the Osteocalcin (serum osteocalcin; 100 mg/kg/day, 12 wks) was 77 ng/mL and the concentration at 2016 h ([2]; 50 mg/kg/day, 12 wks, read-out: Serum carnitine, Free) was 45.6 µM. It also gave a concentration at 2016 h ([2]; 50 mg/kg/day, 12 wks, read-out: Serum carnitine, Total) of 59.6 µM, a concentration at 2016 h ([2]; 100 mg/kg/day, 12 wks, read-out: Serum carnitine, Free) of 52.1 µM and a concentration at 2016 h ([2]; 100 mg/kg/day, 12 wks, read-out: Serum carnitine, Total) of 65.1 µM.

For C[N+](C)(C)CC(O)CC(=O)[O-] (stereo not drawn) [carnitine, β-hydroxy-γ-N-trimethylammounium butyrate], the serum half-life [3] is given as “about 30 minutes” and the “stunted growth” value [4] is given as “normalizes with carnitine repletion”.

For C[N+](C)(C)CCCC(=O)[O-] [γ-butyrobetaine, 4-trimethylamino butyrate], the “significance of difference in osteocalcin vs control (p, student's t test)” value (serum osteocalcin; 50 mg/kg/day) was less than 0.05, the Osteocalcin (serum osteocalcin; 50 mg/kg/day, 6 wks) was 184 ng/mL and 184 ± 6 ng/mL and the Osteocalcin (serum osteocalcin; 50 mg/kg/day, 12 wks) was 173 ng/mL. The “significance of difference in osteocalcin vs control (p, student's t test)” value (serum osteocalcin; 100 mg/kg/day) was “< .01”, the Osteocalcin (serum osteocalcin; 100 mg/kg/day, 6 wks) was 220 ng/mL and 220 ± 75 ng/mL and the Osteocalcin (serum osteocalcin; 100 mg/kg/day, 12 wks) was 122 ng/mL. The “effect on osteocalcin” value (serum osteocalcin; adult mice, 50 and 100 mg/kg/day) was “stimulate osteocalcin production in adult mice; also recorded: maintained osteocalcin blood levels; also recorded: at least as effective as, and possibly better than, L-carnitine in increasing osteocalcin levels”, the concentration at 2016 h ([2]; 50 mg/kg/day, Serum carnitine, Free) was 40.7 µM and the concentration at 2016 h ([2]; 50 mg/kg/day, Serum carnitine, Total) was 63.2 µM. It also gave a concentration at 2016 h ([2]; 100 mg/kg/day, Serum carnitine, Free) of 40.4 µM and a concentration at 2016 h ([2]; 100 mg/kg/day, Serum carnitine, Total) of 58.5 µM.

For “IGF-1: insulin-like growth factor 1, produced and released by the liver in response to growth hormone”, the potential side-effects [5] is given as “abdominal bloating, indigestion and nausea, and alteration in cellular insulin receptor sites”.

In the case of “growth hormone: pituitary growth hormone, now readily available as a biosynthetic product”, the side-effects observed [6] is given as “stimulation of neoplastic growth, acromegaly, amenorrhea, flushing and nausea, "dawn" phenomena (a condition of insulin insufficiency which is very dangerous for diabetics), either hyperglycemia or hypoglycemia in diabetics, and fluid retention” and the “alterations in body composition” value (body composition) is given as “can be reversed by replacement doses of the hormone”.
